The record followed here is PMC5034277, “High Fructose Diet inducing diabetes rapidly impacts olfactory epithelium and behavior in mice” (Scientific Reports, 2016).

This assay has as its target T1, MOR23 (Mus musculus, UniProt Q62007).
T1 construct: gene Or10j5; native full-length receptor in GFP-labelled olfactory sensory neurons of gene-targeted MOR23-IRES-tauEGFP mice, intact epithelium; untagged (IRES reporter)
T1 sequence (Q62007 1-309): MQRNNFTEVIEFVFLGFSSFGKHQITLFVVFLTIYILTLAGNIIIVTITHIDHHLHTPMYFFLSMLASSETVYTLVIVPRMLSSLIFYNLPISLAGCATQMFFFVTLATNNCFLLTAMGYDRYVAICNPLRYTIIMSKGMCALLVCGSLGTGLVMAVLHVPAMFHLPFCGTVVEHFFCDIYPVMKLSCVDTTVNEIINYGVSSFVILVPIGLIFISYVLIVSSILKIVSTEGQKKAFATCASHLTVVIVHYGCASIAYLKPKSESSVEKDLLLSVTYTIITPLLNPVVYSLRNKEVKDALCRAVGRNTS
The assay is described as follows: perforated patch-clamp of dendritic knob, peak transduction current, Hill fit. The following applies: neurons of control-diet mice; holding -67 mV; Ringer pH 7.6; pressure-delivered odorant; whole-neuron transduction read-out; read-out: K1/2. It counts as cell-based.

Turning to `CC(C)(O)CCCC1=CCC(C=O)CC1` (stereo not shown) [Lyral], the EC50 came out at 3 ± 1 µM.
